These results are taken from patent publication US20220361547A1, “TASTE MODIFYING COMPOSITIONS AND USES THEREOF” (Firmenich Incorporated, priority 2019, published 2022).

Counter-ions that a name gives are not always drawn.

The test is described as follows: Sensory testing: taste testers rate sweetness of aqueous sweetener compositions without and with A1. The test is classed as in vivo, human. The conditions noted are these: scale from 1 to 10. The procedure:
Compositions of various sweetening agents were prepared without any additive and with the sodium salt of N-(1-((4-amino-2,2-dioxo-1H-benzo[c][1,2,6]thiadiazin-5-yl)oxy)-2-methyl-propan-2-yl)isonicotinamide (A1) added at various concentrations. Taste testers were asked to rate the sweetness of the resulting aqueous compositions for sweetness on a scale from 1 to 10.

Regarding `CC(C)(COc1cccc2c1C(N)=NS(=O)(=O)N2)NC(=O)c1ccncc1` [A1, sodium salt of N-(1-((4-amino-2,2-dioxo-1H-benzo[c][1,2,6]thiadiazin-5-yl)oxy)-2-methyl-propan-2-yl)isonicotinamide], the sweetness rating runs as follows: (aqueous Allulose (3.5%) with 4 ppm A1) 3.7; (aqueous Allulose (3.5%) with 8 ppm A1) 4.7; (aqueous Allulose (3.5%) with 12 ppm A1) 4.1; (aqueous Allulose (3.5%) with 16 ppm A1) 5.5; (aqueous D-(+)-Glucose (7%) with 4 ppm A1) 4.5; (aqueous D-(+)-Glucose (7%) with 8 ppm A1) 4.2. Moreover, the sweetness rating reads like this: (aqueous D-(+)-Glucose (7%) with 12 ppm A1) 5.2; (aqueous D-(+)-Glucose (7%) with 16 ppm A1) 5.7; (aqueous Erythritol (5%) with 4 ppm A1) 4.4; (aqueous Erythritol (5%) with 8 ppm A1) 4.4; (aqueous Erythritol (5%) with 12 ppm A1) 5.7; (aqueous Erythritol (5%) with 16 ppm A1) 6.0. Moreover, the sweetness rating (aqueous Fructose (7%) with 4 ppm A1) is 7.1; the sweetness rating (aqueous Fructose (7%) with 8 ppm A1) is on record as 7.4; the sweetness rating (aqueous Fructose (7%) with 12 ppm A1) came out at 8.0; the sweetness rating (aqueous Fructose (7%) with 16 ppm A1) is reported as 8.3; the sweetness rating (aqueous HFCS (7%) with 4 ppm A1) is recorded as 5.9; the sweetness rating (aqueous HFCS (7%) with 8 ppm A1) worked out at 7.2. In addition, the sweetness rating reads like this: (aqueous HFCS (7%) with 12 ppm A1) 7.4; (aqueous Reb M (200 ppm) with 4 ppm A1) 5.3; (aqueous Reb M (200 ppm) with 8 ppm A1) 6.3; (aqueous Reb M (200 ppm) with 12 ppm A1) 6.1; (aqueous Reb M (200 ppm) with 16 ppm A1) 7.3; (aqueous Sucralose (80 ppm) with 4 ppm A1) 6.1. Further, the sweetness rating runs as follows: (aqueous Sucralose (80 ppm) with 8 ppm A1) 6.6; (aqueous Sucralose (80 ppm) with 12 ppm A1) 7.1; (aqueous Sucralose (80 ppm) with 16 ppm A1) 7.0; (aqueous Sucrose (5%) with 4 ppm A1) 6.4; (aqueous Sucrose (5%) with 8 ppm A1) 7.3; (aqueous Sucrose (5%) with 12 ppm A1) 8.0.
On to `O=C(CO)C(O)C(O)C(O)CO` (stereo not shown) [Allulose, reference compound], for which the sweetness rating (aqueous Allulose (3.5%), No A1) is reported as 3.0.
`O=C[C@H](O)[C@@H](O)[C@H](O)[C@H](O)CO` [D-(+)-Glucose, reference compound] gave a sweetness rating (aqueous D-(+)-Glucose (7%), No A1) of 3.8.
For the setting “aqueous Erythritol (5%), No A1”, `OC[C@@H](O)[C@@H](O)CO` [Erythritol, reference compound] registered a sweetness rating of 4.0.
Regarding `O=C(CO)[C@@H](O)[C@H](O)[C@H](O)CO` [Fructose, reference compound], under “aqueous Fructose (7%), No A1”, the sweetness rating worked out at 7.1.
`C=C1C[C@@]23CC[C@H]4[C@@](C)(CCC[C@@]4(C)C(=O)O[C@@H]4O[C@H](CO)[C@@H](O)[C@H](O[C@@H]5O[C@H](CO)[C@@H](O)[C@H](O)[C@H]5O)[C@H]4O[C@@H]4O[C@H](CO)[C@@H](O)[C@H](O)[C@H]4O)[C@@H]2CC[C@]1(O[C@@H]1O[C@H](CO)[C@@H](O)[C@H](O[C@@H]2O[C@H](CO)[C@@H](O)[C@H](O)[C@H]2O)[C@H]1O[C@@H]1O[C@H](CO)[C@@H](O)[C@H](O)[C@H]1O)C3` [Reb M, Rebaudioside M, reference compound] showed a sweetness rating (aqueous Reb M (200 ppm), No A1) of 4.7.
As to `OC[C@H]1O[C@H](O[C@]2(CCl)O[C@H](CCl)[C@@H](O)[C@@H]2O)[C@H](O)[C@@H](O)[C@H]1Cl` [Sucralose, reference compound], the sweetness rating (aqueous Sucralose (80 ppm), No A1) stood at 3.3.
In turn, `OC[C@H]1O[C@@](CO)(O[C@H]2O[C@H](CO)[C@@H](O)[C@H](O)[C@H]2O)[C@@H](O)[C@@H]1O` [Sucrose, reference compound] came in with a sweetness rating (aqueous Sucrose (5%), No A1) of 3.6.
